Assay results from US4229466A, “Sesquiterpene derivatives having anti-complementary activity” (Otsuka Pharmaceutical Co., Ltd., priority 1977, dated 1980).
Where “and” joins values, the source holds several entries; their conditions need not be identical. Equal entries are not always repeated.

Columns and labels:
[1] = system: Heymann-type Nephritis; test: Therapeutic effects on Heymann-type nephritis (proteinuria); format: in vivo, male Wistar rats; settings: for amount of proteinurea, Average: average of 3 replications; for amount of proteinurea: individual replication; for activity of curing Heymann-type nephritis: test of Table 4, result in words
Protocol: Male Wistar rats with a body weight of 180 to 200 g were used in the test. Rat kidney cortex was extracted, and homogenized with an equal quantity by volume of a physiological saline solution. The homogenate was centrifuged at 1500 G for 1 hour. The supernatant liquid was purified in accordance with the method of T. S. […] The resulting mixture was injected intraperitoneally into isologous rats in an amount of 0.5 ml per rat. […] (This period was about 6 to 8 weeks.) […] CP was used as a comparison compound, and physiological saline solution was used as a control. Three replications were conducted for each test compound.

[2] = system: Nephrotoxin-Type Nephritis; test: Therapeutic effect on nephrotoxin-type nephritis (proteinuria); format: in vivo, male Wistar rats; settings: for amount of proteinurea, Average: average of 3 replications; for amount of proteinurea, Average / amount of proteinurea: 5 mg per rat i.p. once daily, 7 days; for amount of proteinurea: individual replication; for inhibition of the primary reaction of nephrotoxin-type nephritis: same test as Table 3
Source text: Rat nephrotoxin ("NT" for brevity) was obtained as described below. Rat kidney cortex was homogenized with an equal quantity of physiological saline. The homogenized mixture was mixed with Freund's complete adjuvant (a product of Difco Company) in a volume ratio of 1:1. Two milliliters of the resulting mixture was intramuscularly injected into a rabbit (body weight 3,100 g) to immunize the rabbit. A month and a half later, blood was taken from the heart of the rabbit and serum was obtained. The resulting serum was inactivated at 56° C. for 30 minutes, then salted out with a 40% saturated aqueous solution of ammonium sulfate, and fractionated. The γ-globulin (IgG) fraction was collected to obtain NT.
The evaluation was carried out using male Wistar rats with a body weight of 150 to 160 g with three replications for each test compound. The test compound was intraperitoneally administered once every 24 hours for seven days. One hour after the administration of the test compound on the third day, the NT was applied. The NT was intravenously injected in an amount of 1 ml at a tail vein of each rat. Chlorophyllin (CP) was used as a comparison compound, and physiological saline solution was used as a control.
The proteinuria level (total amount excreted into the urine over a 24 hour period) was measured using turbidometry employing bovine serum albumin as a control by means of sulfosalicylic acid.

[3] = Acute toxicity on intravenous administration to mice; settings: mouse, in vivo
[4] = system: complement serum (guinea pig complement); test: Anti-complement activity: 50% inhibition of hemolysis of sensitized erythrocytes; format: cell-based; settings: 37° C., 60 minutes, guinea pig complement diluted 150 times; for IC50: Cavia porcellus, Erythrocyte, 1 h, OD413, read-out: Anti-Complement Activity Value (50% hemolysis inhibitory activity value)
Protocol: The anti-complement activity was measured and confirmed by the testing method described in Meneki Kagaku (Immuno-Chemistry), Yuichi Yamamura et al., Ed. pages 830-834, Asakura Shoten, Tokyo, Japan (1973). Specifically,a test tube was charged with 0.5 ml of an aqueous dispersion of each of the test compounds, 0.5 ml of sensitized erythrocytes (EA) containing 1×10^8 cells/ml, 1 ml of a 5-fold diluted solution of a Veronal buffer solution containing gelatin, Ca^++ and Mg^++ (GVB^++), and 0.5 ml of complement serum (guinea pig complement) diluted to 150 times with the GVB^++. The mixture was maintained hot at 37° C. for 60 minutes. Then, 5 ml of an ice-cold physiological saline solution was added thereto, and the mixture was centrifuged. […] The 50% hemolysis inhibitory activity value (γ/ml) measured by the above method is shown in Table 2 below for each test compound.

[5] = Before Administration, group of 5 mg per rat i.p.
[6] = Day 1, 5 mg per rat i.p. once a day, 7 days
[7] = Day 4, 5 mg per rat i.p. once a day, 7 days
[8] = Day 7, 5 mg per rat i.p. once a day, 7 days
[9] = Day 14, 5 mg per rat i.p. once a day, 7 days
[10] = Day 21, 5 mg per rat i.p. once a day, 7 days

For `CC1CCC2C(C)(C)C(O)C(O)CC2(C)C12Cc1c(O)cc(C=O)c(C(=O)O)c1O2` (centres unmarked) [(67), Disodium 6,7-dihydroxy-2,5,5,8a-tetramethyl-1,2,3,4,4a,5,6,7,8,8a-decahydronaphthalene-1-spiro-2'-(7'carboxylate-6'-formyl-4'-oxide-2',3'-dihydrobenzofuran)], which “amount of proteinurea, Average” value [1, 5] is on record?
The value was 118 mg/day.

What about the amount of proteinurea [1, 5] of the same compound?
Its amount of proteinurea is 117 mg/day and 132 mg/day and 105 mg/day.

What about the “amount of proteinurea, Average” value [1, 6] of the same compound?
The value was 117 mg/day.

What about the amount of proteinurea [1, 6] of the same compound?
Its amount of proteinurea is 109 mg/day and 127 mg/day and 114 mg/day.

And the “amount of proteinurea, Average” value [1, 7]?
Its value is 59 mg/day.

What about the amount of proteinurea [1, 7] of the same compound?
The amount of proteinurea was 59 mg/day and 67 mg/day and 51 mg/day.

And the “amount of proteinurea, Average” value [1, 8]?
The value was 30 mg/day.

What about the amount of proteinurea [1, 8] of the same compound?
Its amount of proteinurea is 23 mg/day and 41 mg/day and 25 mg/day.

What about the “amount of proteinurea, Average” value [1, 9] of the same compound?
Its value is 14 mg/day.

And the amount of proteinurea [1, 9]?
Its amount of proteinurea is 13 mg/day and 17 mg/day and 11 mg/day.

What about the “amount of proteinurea, Average” value [1, 10] of the same compound?
Its value is 11 mg/day.

And the amount of proteinurea [1, 10]?
Its amount of proteinurea is 9 mg/day and 13 mg/day and 12 mg/day.

And the “amount of proteinurea, Average” value ([2]; Day 1)?
The value was 3.0 mg/day.

What about the amount of proteinurea ([2]; Day 1) of the same compound?
The amount of proteinurea was 2.7 mg/day and 4.1 mg/day and 2.3 mg/day.

What about the “amount of proteinurea, Average” value ([2]; Day 4) of the same compound?
Its value is 1.7 mg/day.

And the amount of proteinurea ([2]; Day 4)?
The amount of proteinurea was 1.8 mg/day and 2.0 mg/day and 1.3 mg/day.

What about the “amount of proteinurea, Average” value ([2]; Day 7) of the same compound?
Its value is 1.1 mg/day.

What about the amount of proteinurea ([2]; Day 7) of the same compound?
The amount of proteinurea was 0.7 mg/day and 1.5 mg/day and 1.2 mg/day.

And the “amount of proteinurea, Average” value ([2]; Day 10)?
Its value is 9 mg/day.

And the amount of proteinurea ([2]; Day 10)?
The amount of proteinurea was 9 mg/day and 12 mg/day and 7 mg/day.

And the LD50 [3]?
The LD50 was 500 mg/kg.

And the IC50 [4]?
Its IC50 is 60 µg/mL.

With Chlorophyllin [reference compound] as the compound, how does the “amount of proteinurea, Average” value [1, 5] read?
The value was 123 mg/day.

And the amount of proteinurea [1, 5]?
The amount of proteinurea was 123 mg/day and 117 mg/day and 129 mg/day.

And the “amount of proteinurea, Average” value [1, 6]?
The value was 115 mg/day.

And the amount of proteinurea [1, 6]?
Its amount of proteinurea is 116 mg/day and 108 mg/day and 121 mg/day.

What about the “amount of proteinurea, Average” value [1, 7] of the same compound?
The value was 62 mg/day.

What about the amount of proteinurea [1, 7] of the same compound?
Its amount of proteinurea is 72 mg/day and 63 mg/day and 52 mg/day.

And the “amount of proteinurea, Average” value [1, 8]?
The value was 28 mg/day.

And the amount of proteinurea [1, 8]?
The amount of proteinurea was 32 mg/day and 29 mg/day and 22 mg/day.

And the “amount of proteinurea, Average” value [1, 9]?
Its value is 14 mg/day.

What about the amount of proteinurea [1, 9] of the same compound?
The amount of proteinurea was 16 mg/day and 12 mg/day and 15 mg/day.

What about the “amount of proteinurea, Average” value [1, 10] of the same compound?
The value was 10 mg/day.

And the amount of proteinurea [1, 10]?
Its amount of proteinurea is 10 mg/day and 8 mg/day and 13 mg/day.

And the “amount of proteinurea, Average” value ([2]; Day 1)?
Its value is 3.4 mg/day.

What about the amount of proteinurea ([2]; Day 1) of the same compound?
The amount of proteinurea was 2.4 mg/day and 4.4 mg/day and 3.2 mg/day.

And the “amount of proteinurea, Average” value ([2]; Day 4)?
The value was 2.1 mg/day.

What about the amount of proteinurea ([2]; Day 4) of the same compound?
Its amount of proteinurea is 1.5 mg/day and 2.6 mg/day and 2.1 mg/day.

And the “amount of proteinurea, Average” value ([2]; Day 7)?
The value was 2.0 mg/day.

And the amount of proteinurea ([2]; Day 7)?
Its amount of proteinurea is 0.9 mg/day and 1.7 mg/day and 3.5 mg/day.

What about the “amount of proteinurea, Average” value ([2]; Day 10) of the same compound?
Its value is 8 mg/day.

What about the amount of proteinurea ([2]; Day 10) of the same compound?
The amount of proteinurea was 9 mg/day and 8 mg/day and 6 mg/day.

And the “amount of proteinurea compared with healthy rat” value ([2]; from administration of NT to 10 days after, result in words)?
The value was “substantially the same as that of a healthy rat”.

And the “Anti-Complement Activity Value (50% hemolysis inhibitory activity value)” value ([4]; OD413)?
The value was 40 µg/mL.

Which results are given for `CC1CCC2C(C)(C)C(O)C(O)CC2(C)C12Cc1c(O)cc(CO)c(CO)c1O2` (centres unmarked) [(11), 6,7-Dihydroxy-2,5,5,8a-tetramethyl-1,2,3,4,4a,5,6,7,8,8a-decahydronaphthalene-1-spiro-2'-(6',7'-dihydroxymethyl-4'-hydroxy-2',3'-dihydrobenzofuran)]?
activity of curing Heymann-type nephritis [1]: a substantial activity of curing Heymann-type nephritis; inhibition of the primary reaction of nephrotoxin-type nephritis ([2]; result in words): found to inhibit the primary reaction; IC50 [4]: 500 µg/mL

For `COc1cc(CO)c(CO)c2c1CC1(O2)C(C)CCC2C(C)(C)C(O)C(O)CC21C` (centres unmarked) [(12), 6,7-Dihydroxy-2,5,5,8a-tetramethyl-1,2,3,4,4a,5,6,7,8,8a-decahydronaphthalene-1-spiro-2'-(6',7'-dihydroxymethyl-4'-methoxy-2',3'-dihydrobenzofuran)], which “activity of curing Heymann-type nephritis” value [1] is on record?
The value was “a substantial activity of curing Heymann-type nephritis”.

And the “inhibition of the primary reaction of nephrotoxin-type nephritis” value (“inhibition” below) ([2]; result in words)?
The value was “found to inhibit the primary reaction”.

And the IC50 [4]?
Its IC50 is 250 µg/mL.

Which “activity of curing Heymann-type nephritis” value [1] does the source give for `CC(=O)OCc1cc(OC(C)=O)c2c(c1COC(C)=O)OC1(C2)C(C)CCC2C(C)(C)C(OC(C)=O)C(OC(C)=O)CC21C` (centres unmarked) [Compound No. (25), 6,7-Diacetyloxy-2,5,5,8a-tetramethyl-1,2,3,4,4a,5,6,7,8,8a-decahydronaphthalene-1-spiro-2'-(6',7'-diacetyloxymethyl-4'-acetyloxy-2',3'-dihydrobenzofuran)] here?
Its value is “a substantial activity of curing Heymann-type nephritis”.

What about the “inhibition” value ([2]; result in words) of the same compound?
The value was “found to inhibit the primary reaction”.

And the IC50 [4]?
The IC50 was 600 µg/mL.

Which LD50 [3] does the source give for `CC1CCC2C(C)(C)C(O)C(O)CC2(C)C12Cc1c(O)cc(C=C(C#N)C#N)c(C=C(C#N)C#N)c1O2` (centres unmarked) [(3), 6,7-Dihydroxy-2,5,5,8a-tetramethyl-1,2,3,4,4a,5,6,7,8,8a-decahydronaphthalene-1-spiro-2'-[6',7'-di-(2,2-dicyanovinyl)-4'-hydroxy-2',3'-dihydrobenzofuran]] here?
The LD50 was 200 mg/kg.

And the IC50 [4]?
Its IC50 is 40 µg/mL.

With `CC1CCC2C(C)(C)C3OC(C)(C)OC3CC2(C)C12Cc1c(O)cc3c(c1O2)C(=O)OC3` (centres unmarked) [Compound No. (62), 4-Hydroxy-8-oxo-2,3,6,8-tetrahydro-furo[3,4-g]benzofuran-2-spiro-1'-(6',7'-isopropylidenedioxy-2',5',5',8'a-tetramethyl-1',2',3',4',4'a,5',6',7',8',8'a-decahydronaphthalene)] as the compound, how does the “activity of curing Heymann-type nephritis” value [1] read?
The value was “a substantial activity of curing Heymann-type nephritis”.

And the “inhibition” value ([2]; result in words)?
Its value is “found to inhibit the primary reaction”.

What about the IC50 [4] of the same compound?
Its IC50 is 450 µg/mL.

Which LD50 [3] does the source give for `CCOC(=O)C(C#N)=Cc1cc(O)c2c(c1C=C(C#N)C(=O)OCC)OC1(C2)C(C)CCC2C(C)(C)C(O)C(O)CC21C` (centres unmarked) [(4), 6,7-Dihydroxy-2,5,5,8a-tetramethyl-1,2,3,4,4a,5,6,7,8,8a-decahydronaphthalene-1-spiro-2'-[6',7'-di-(2-cyano-2-ethoxycarbonylvinyl)-4'-hydroxy-2',3'-dihydrobenzofuran]] here?
The LD50 was 200 mg/kg.

What about the IC50 [4] of the same compound?
The IC50 was 80 µg/mL.

Which LD50 [3] does the source give for `CC1CCC2C(C)(C)C(O)C(O)CC2(C)C12Cc1c(O)cc(O)c(O)c1O2` (centres unmarked) [(2), 6,7-Dihydroxy-2,5,5,8a-tetramethyl-1,2,3,4,4a,5,6,7,8,8a-decahydronaphthalene-1-spiro-2'-(4',6',7'-trihydroxy-2',3'-dihydrobenzofuran)] here?
Its LD50 is 150 mg/kg.

And the IC50 [4]?
Its IC50 is 80 µg/mL.

With `CC1CCC2C(C)(C)C(O)C(O)CC2(C)C12Cc1c(O)cc(CO)c(C(=O)O)c1O2` (centres unmarked) [(8), 6,7-Dihydroxy-2,5,5,8a-tetramethyl-1,2,3,4,4a,5,6,7,8,8a-decahydronaphthalene-1-spiro-2'-(7'-carboxy-6'-hydroxymethyl-4'-hydroxy-2',3'-dihydrobenzofuran)] as the compound, how does the “activity of curing Heymann-type nephritis” value [1] read?
The value was “a substantial activity of curing Heymann-type nephritis”.

And the “inhibition” value ([2]; result in words)?
The value was “found to inhibit the primary reaction”.

And the IC50 [4]?
Its IC50 is 125 µg/mL.
